Data reported in ChEMBL document CHEMBL1131706, “S1319: a novel beta2-andrenoceptor agonist from a marine sponge Dysidea sp” (Bioorg Med Chem Lett, 1999).

Tests used:
[1] = target: Beta-1 adrenergic receptor (Homo sapiens, UniProt P08588)
Description: Compound was tested for its binding affinity to human Beta-1 adrenergic receptor by using the radioligand [3H]CGP-12177

[2] = target: Beta-2 adrenergic receptor (Homo sapiens, UniProt P07550)
Description: Compound was tested for its binding affinity to human Beta-2 adrenergic receptor by using the radioligand [3H]CGP-12177

[3] = species on record: Cavia porcellus; test: Compound was tested for the ability to relax histamine induced contraction of isolated trachea; assay type: functional

Beta-1 adrenergic receptor, sequence (P08588 whole entry): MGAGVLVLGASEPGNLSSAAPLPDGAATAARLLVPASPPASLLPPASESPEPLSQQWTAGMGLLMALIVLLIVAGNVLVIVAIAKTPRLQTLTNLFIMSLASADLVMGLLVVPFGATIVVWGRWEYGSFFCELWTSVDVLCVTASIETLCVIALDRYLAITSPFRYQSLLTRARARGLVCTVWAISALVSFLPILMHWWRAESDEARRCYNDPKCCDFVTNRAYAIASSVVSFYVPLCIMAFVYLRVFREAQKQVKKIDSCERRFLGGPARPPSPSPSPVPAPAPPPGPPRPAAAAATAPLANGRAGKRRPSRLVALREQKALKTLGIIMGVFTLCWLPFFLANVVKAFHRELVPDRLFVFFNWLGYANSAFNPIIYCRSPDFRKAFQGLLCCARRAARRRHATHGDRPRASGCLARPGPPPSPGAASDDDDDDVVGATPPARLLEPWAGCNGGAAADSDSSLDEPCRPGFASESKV
Beta-2 adrenergic receptor, sequence (P07550 whole entry): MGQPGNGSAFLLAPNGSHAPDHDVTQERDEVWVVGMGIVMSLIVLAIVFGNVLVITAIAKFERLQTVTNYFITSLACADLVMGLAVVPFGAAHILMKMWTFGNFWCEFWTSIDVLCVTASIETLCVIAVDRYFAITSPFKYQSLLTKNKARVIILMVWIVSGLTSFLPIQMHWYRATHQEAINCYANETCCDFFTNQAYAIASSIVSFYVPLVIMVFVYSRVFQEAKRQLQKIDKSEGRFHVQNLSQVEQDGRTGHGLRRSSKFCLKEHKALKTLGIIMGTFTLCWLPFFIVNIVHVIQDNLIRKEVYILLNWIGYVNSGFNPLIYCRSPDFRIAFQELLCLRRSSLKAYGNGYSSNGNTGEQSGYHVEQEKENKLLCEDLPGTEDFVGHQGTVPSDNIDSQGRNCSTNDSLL

| SMILES | Kd [1] [nM] | Kd [2] [nM] | pD2 [3] |
| --- | --- | --- | --- |
| CNCC(O)c1ccc(O)c2nc(O)sc12 (centres undefined) | 120 | 51 | 10.6 |
| CNCC(O)c1ccc(OC)c2c1sc(=O)n2C (centres undefined) | – | – | 7.08 |
